In ChEMBL document CHEMBL1201862, “PubChem BioAssay data set” (2004):
Activity calls are given as the source filed them. Unless noted, the calls are words filed in the database; no cut-off is given here.

How the values were obtained:
[1] = Late stage assay provider results from the probe development effort to identify inhibitors of the Plasmodium falciparum M18 Aspartyl Aminopeptidase (M18AAP): radiolabel-based cell-based dose response assay to identify compounds that inhibit P. falciparum growth in RBCs, Set 2..; format: functional
[2] = time-course viability loss in HT-29 cells – cell-based, CellTiter-Glo, multiple timepoints, dry powder, HRas target identification project, dose response (AID 720598); format: functional
[3] = cytotoxicity in CCRF-CEM lymphoblastic leukemia cells – cell-based, CellTiter-Glo ATP luminescence, 8/24/48 h, dry powder, HRAS target identification, dose response (AID 720607); format: functional
[4] = cytotoxicity in LOX IMVI melanoma cells – cell-based, CellTiter-Glo ATP luminescence, 8/24/48 h, dry powder, HRAS target identification, dose response (AID 720602); format: functional
[5] = cytotoxicity in SNB-75 CNS cells – cell-based, CellTiter-Glo ATP luminescence, several timepoints, dry powder, mechanism study for HRAS target identification, late-stage follow-up (AID 720624); format: functional
[6] = cytotoxicity in SR immunoblastic lymphoma cells – cell-based, CellTiter-Glo ATP luminescence, 8-48 h, dry powder, mechanism study for HRAS target identification, late-stage follow-up (AID 720608); format: functional
[7] = cytotoxicity in U-251 glioma cells – cell-based, CellTiter-Glo ATP luminescence, several timepoints, dry powder, mechanism study for HRAS target identification, late-stage follow-up (AID 720616); format: functional
[8] = cytotoxicity in SNB-19 cells – cell-based, CellTiter-Glo ATP luminescence, 8-48 h, dry powder, mechanism study for HRAS target identification, late-stage follow-up (AID 720611); format: functional
[9] = cytotoxicity in SNB-19 CNS tumor cells – cell-based, Alamar Blue fluorescence, 8/24/48 h, dry powder, HRAS target identification, dose response (AID 720600); format: functional
[10] = cytotoxicity in primary human umbilical endothelium – cell-based, CellTiter-Glo ATP luminescence, 8/24/48 h, dry powder, cytotoxicity control for HRAS target identification, dose response (AID 720604); format: functional; details: HUVEC
[11] = cytotoxicity in HeLa cervical cancer cells – cell-based, CellTiter-Glo ATP luminescence, 8-48 h, dry powder, mechanism study for HRAS target identification, late-stage follow-up (AID 720609); format: functional
[12] = cytotoxicity in mouse C2C12 myoblasts – cell-based, CellTiter-Glo ATP luminescence, 8/24/48 h, dry powder, cytotoxicity control for HRAS target identification, dose response (AID 720603); format: functional
Kallikrein-7 = Kallikrein-7 (Homo sapiens, UniProt P49862); experiment: Fluorescence Intensity-based biochemical primary high throughput dose response assay to identify activators of kallikrein-7 (K7) zymogen.
Kallikrein-7, sequence (P49862 whole entry): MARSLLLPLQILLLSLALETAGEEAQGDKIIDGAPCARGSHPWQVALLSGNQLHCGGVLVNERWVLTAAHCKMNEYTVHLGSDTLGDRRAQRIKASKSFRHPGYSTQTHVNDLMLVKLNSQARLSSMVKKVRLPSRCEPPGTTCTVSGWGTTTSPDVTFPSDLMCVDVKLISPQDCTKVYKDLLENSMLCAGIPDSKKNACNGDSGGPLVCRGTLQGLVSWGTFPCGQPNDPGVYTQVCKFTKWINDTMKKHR

[13] = reduced cellular PGC1a acetyl-lysine signal – cell-based, cherry-picked samples, dose response (AID 720514); format: functional;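 further: potency may reflect raised or lowered acetylation signal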
[14] = Late stage assay provider results from the probe development effort to identify selective inhibitors of heat shock protein 90 (HSP90): Absorbance-based cell proliferation assay in SKBR3 cells.; format: functional; details: SK-BR-3
[15] = Late stage assay provider results from the probe development effort to identify selective inhibitors of heat shock protein 90 (HSP90): Absorbance-based cell proliferation assay in MCF7 cells.; format: functional
[16] = HepG2 cell viability loss – cherry-picked samples, cytotoxicity control, dose response (AID 1053183); format: functional, cell-based
[17] = HEK293 cell viability loss – cherry-picked samples, cytotoxicity control, dose response (AID 1053185); format: functional, cell-based
[18] = intracellular Trypanosoma cruzi inhibitors in host cells – cell-based, plate reader, cherry-pick samples, set 3, dose response (AID 651818); format: functional;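 further: compounds incubated with infected cells for about four days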
[19] = A549 cell viability loss – cherry-picked samples, cytotoxicity control, dose response (AID 1053184); format: functional, cell-based
[20] = target: 1-phosphatidylinositol 4,5-bisphosphate phosphodiesterase gamma-1 (Homo sapiens, UniProt P19174); experiment: Counterscreen for inhibitors of phospholipase C isozymes (PLC-B3): Fluorescence-based biochemical high throughput dose response assay to identify inhibitors of phospholipase C isozymes (PLC-gamma1).
1-phosphatidylinositol 4,5-bisphosphate phosphodiesterase gamma-1, sequence (P19174 whole entry): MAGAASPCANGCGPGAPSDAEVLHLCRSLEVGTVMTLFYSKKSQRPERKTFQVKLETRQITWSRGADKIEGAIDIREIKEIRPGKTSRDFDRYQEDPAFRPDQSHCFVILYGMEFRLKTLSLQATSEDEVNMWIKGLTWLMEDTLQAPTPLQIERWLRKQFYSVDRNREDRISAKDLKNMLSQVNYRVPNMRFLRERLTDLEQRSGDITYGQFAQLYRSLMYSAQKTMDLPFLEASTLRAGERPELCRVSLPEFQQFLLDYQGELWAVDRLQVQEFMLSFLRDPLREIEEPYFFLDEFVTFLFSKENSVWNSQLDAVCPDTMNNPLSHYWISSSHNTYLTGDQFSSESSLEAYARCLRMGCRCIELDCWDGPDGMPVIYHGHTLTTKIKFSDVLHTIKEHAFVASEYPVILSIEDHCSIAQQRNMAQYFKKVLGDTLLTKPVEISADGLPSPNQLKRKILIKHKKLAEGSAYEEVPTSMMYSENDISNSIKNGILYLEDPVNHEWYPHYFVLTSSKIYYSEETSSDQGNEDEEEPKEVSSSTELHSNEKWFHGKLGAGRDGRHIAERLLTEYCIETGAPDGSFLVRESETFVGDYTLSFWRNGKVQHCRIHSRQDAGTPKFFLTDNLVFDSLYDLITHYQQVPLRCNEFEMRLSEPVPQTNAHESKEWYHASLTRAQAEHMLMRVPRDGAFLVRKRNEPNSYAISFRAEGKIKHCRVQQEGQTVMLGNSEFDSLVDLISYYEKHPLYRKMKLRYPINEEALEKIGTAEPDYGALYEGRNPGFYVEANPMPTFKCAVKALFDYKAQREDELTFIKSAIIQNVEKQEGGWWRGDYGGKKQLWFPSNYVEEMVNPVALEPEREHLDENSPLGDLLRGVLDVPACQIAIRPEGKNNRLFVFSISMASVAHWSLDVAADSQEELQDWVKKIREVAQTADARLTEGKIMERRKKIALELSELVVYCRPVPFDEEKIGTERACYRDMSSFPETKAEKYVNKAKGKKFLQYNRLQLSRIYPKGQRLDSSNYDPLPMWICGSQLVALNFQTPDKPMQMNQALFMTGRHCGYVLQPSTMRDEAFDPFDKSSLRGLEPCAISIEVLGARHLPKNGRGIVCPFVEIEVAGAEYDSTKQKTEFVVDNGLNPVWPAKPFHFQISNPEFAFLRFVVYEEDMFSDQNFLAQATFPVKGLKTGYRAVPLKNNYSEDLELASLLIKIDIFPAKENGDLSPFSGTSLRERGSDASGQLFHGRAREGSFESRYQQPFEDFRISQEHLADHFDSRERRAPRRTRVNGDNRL

[21] = target: 1-phosphatidylinositol 4,5-bisphosphate phosphodiesterase beta-3 (Homo sapiens, UniProt Q01970); experiment: Fluorescence-based biochemical high throughput dose response assay to identify inhibitors of phospholipase C isozymes (PLC-B3).
1-phosphatidylinositol 4,5-bisphosphate phosphodiesterase beta-3, sequence (Q01970 whole entry): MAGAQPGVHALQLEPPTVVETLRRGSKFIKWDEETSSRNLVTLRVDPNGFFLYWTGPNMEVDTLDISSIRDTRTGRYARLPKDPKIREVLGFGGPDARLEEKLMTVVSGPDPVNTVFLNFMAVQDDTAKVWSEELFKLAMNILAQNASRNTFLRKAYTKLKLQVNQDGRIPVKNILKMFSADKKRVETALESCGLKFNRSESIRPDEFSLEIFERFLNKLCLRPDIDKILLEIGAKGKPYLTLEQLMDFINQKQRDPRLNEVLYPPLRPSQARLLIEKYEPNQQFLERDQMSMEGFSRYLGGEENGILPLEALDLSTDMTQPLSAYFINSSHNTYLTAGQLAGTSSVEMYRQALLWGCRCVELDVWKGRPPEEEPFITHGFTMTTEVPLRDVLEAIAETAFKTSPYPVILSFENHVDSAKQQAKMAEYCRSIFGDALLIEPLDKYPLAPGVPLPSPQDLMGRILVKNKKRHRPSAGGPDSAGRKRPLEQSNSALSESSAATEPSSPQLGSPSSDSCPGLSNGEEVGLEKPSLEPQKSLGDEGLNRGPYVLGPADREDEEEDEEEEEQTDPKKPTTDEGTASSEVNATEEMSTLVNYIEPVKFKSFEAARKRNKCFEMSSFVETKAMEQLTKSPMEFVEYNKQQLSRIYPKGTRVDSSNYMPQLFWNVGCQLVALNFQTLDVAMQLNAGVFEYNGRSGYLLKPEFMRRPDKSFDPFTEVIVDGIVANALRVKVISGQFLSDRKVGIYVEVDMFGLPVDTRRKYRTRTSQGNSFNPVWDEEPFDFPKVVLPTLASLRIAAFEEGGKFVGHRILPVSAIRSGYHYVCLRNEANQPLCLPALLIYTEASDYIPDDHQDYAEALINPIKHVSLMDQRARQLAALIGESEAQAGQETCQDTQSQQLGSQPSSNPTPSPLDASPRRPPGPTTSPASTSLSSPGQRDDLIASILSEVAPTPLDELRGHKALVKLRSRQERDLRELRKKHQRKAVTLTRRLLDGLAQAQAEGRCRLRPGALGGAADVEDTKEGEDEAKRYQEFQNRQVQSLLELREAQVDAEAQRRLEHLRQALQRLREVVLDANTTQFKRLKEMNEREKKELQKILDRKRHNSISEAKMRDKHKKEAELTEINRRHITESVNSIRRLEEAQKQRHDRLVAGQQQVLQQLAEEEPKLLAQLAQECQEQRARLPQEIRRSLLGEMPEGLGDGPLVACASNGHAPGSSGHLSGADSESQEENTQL

fMet-Leu-Phe receptor = fMet-Leu-Phe receptor (Homo sapiens, UniProt P21462); experiment: formyl peptide receptor binders – dose response (AID 519); format: functional
fMet-Leu-Phe receptor, sequence (P21462 whole entry): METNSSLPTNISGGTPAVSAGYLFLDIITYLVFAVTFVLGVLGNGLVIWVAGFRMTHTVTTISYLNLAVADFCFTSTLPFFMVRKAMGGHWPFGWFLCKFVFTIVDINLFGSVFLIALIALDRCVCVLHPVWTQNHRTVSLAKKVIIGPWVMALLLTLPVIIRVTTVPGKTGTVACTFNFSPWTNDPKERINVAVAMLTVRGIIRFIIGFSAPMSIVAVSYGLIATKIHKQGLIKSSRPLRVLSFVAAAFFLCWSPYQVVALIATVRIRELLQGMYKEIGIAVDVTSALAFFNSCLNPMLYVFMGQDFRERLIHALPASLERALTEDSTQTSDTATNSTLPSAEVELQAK

[22] = IC50 of Artemis nuclease activity blockers – biochemical, fluorescence intensity, dose response (AID 720701); format: functional;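 further: Artemis endonuclease enzyme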
[23] = target: Potassium channel subfamily K member 3 (Homo sapiens, UniProt O14649); experiment: inhibition of human KCNK3 channel flux – CHO cells, FluxOR thallium flux, SAR follow-up (AID 652212); format: functional
Potassium channel subfamily K member 3, sequence (O14649 whole entry): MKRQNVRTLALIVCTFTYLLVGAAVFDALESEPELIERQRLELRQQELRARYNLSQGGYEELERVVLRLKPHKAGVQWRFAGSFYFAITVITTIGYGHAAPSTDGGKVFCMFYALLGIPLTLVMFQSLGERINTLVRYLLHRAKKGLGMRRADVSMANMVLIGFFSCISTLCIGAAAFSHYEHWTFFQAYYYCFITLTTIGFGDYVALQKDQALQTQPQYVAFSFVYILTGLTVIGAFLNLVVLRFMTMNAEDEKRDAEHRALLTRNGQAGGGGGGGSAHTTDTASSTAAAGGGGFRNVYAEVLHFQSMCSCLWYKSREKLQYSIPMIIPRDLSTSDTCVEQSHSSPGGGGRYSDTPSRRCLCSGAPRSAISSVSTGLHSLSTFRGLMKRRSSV

COc1ccc(CCNc2c3ccccc3nc3ccccc23)cc1
IC50 [1]: 1.1 µM (active)

CC(C)(C)OC(=O)NCCOCCOCCOc1ccc(N(C(=O)CCl)C(C(=O)NCCc2ccccc2)c2cccs2)cc1Cl (stereo not given)
AC50 [2]: 0.492 µM (active)
AC50 [3]: 0.177 µM (active)
AC50 [4]: 0.156 µM (active)
AC50 [5]: 0.738 µM (active)
AC50 [6]: 0.126 µM (active)
AC50 [7]: 1.45 µM (active)
AC50 [8]: 1.79 µM (active)
AC50 [9]: 21.2 µM (active)
AC50 [10]: 21.4 µM (active)
AC50 [11]: 0.675 µM (active)
AC50 [12]: 0.643 µM (active)

COc1cccc(CN2CC(C(=O)NCCc3cn4cccnc4n3)CCC2=O)c1 (stereo not given)
EC50 (Kallikrein-7): 23.9 µM (inactive)

Cc1nc2ccccc2c(=O)n1NC(=O)c1ccc(Cl)c([N+](=O)[O-])c1
AC50 [13]: 16.8 µM (active)

COc1ccc(N/C=C2/C=C(Br)C(=O)OC2=O)c(OC)c1
IC50 [14]: 11.4 µM (inactive)
IC50 [15]: 3.8 µM (active)

COc1ccc(S(=O)(=O)Nc2ccc3c(c2)CC(=O)N([C@H](C)CO)C[C@H](C)[C@H](CN(C)Cc2ccc(C(=O)Nc4ccccc4N)cc2)O3)cc1
AC50 [16]: 24.6 µM (active)
AC50 [17]: 23.6 µM (active)
AC50 [18]: 3.19 µM (active)
AC50 [19]: 29.7 µM (active)

CCCCn1c(=O)n(CC(=O)Nc2ccc(OC)c(Cl)c2)c(=O)c2c1nc(CO)n2CCC
IC50 [20]: > 123 µM (inactive)
IC50 [21]: > 123 µM (inactive)

CCOc1ccc(C(=O)C2=C(O)C(=O)N(CC3CCCO3)C2c2ccco2)cc1 (stereo not given)
Ki (fMet-Leu-Phe receptor): 32 µM (inactive)

Cc1cccc(NC(=O)c2sc3nc4c(c(-c5cccs5)c3c2N)CN(C)CC4)c1
IC50 [22]: > 20 µM (inactive)

CCOc1ccccc1NC(=O)c1cccc(NC(=O)C2CCOC2)c1 (stereo not given)
IC50 [23]: 1.33 µM (active)
